Active and inactive are the calls of the source. The rule behind the calls is not given here.
What was measured:
[1] = target: T1, NAD-dependent protein deacetylase sirtuin-1 (Homo sapiens) (UniProt Q96EB6); assay: Inhibition of SIRT1 (unknown origin) assessed as reduction in Fluor de Lys deacetylation at 10 to 20 uM incubated for 5 mins followed by substrate addition measured after 45 mins in presence of NAD/NADH by fluorescence assay
T1 sequence (whole entry): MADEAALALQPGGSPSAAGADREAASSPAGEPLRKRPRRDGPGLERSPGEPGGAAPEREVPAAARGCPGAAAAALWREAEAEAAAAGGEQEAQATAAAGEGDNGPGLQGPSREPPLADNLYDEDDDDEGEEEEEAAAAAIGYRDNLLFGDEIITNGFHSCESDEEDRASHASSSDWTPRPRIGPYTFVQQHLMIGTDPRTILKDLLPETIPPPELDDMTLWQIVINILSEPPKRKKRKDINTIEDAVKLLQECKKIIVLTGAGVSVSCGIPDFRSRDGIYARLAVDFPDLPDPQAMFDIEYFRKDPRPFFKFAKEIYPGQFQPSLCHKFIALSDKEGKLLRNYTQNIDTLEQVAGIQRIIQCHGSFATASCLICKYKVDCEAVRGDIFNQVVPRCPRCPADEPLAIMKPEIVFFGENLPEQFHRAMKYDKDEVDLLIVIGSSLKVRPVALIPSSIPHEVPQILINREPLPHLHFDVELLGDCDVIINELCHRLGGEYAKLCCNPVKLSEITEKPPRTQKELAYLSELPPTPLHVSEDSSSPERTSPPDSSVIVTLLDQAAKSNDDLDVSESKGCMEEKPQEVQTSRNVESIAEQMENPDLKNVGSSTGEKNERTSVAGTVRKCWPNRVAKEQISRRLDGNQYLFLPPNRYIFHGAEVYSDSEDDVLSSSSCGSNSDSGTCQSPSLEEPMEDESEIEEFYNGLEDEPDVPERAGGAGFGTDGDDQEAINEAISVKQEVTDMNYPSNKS

[2] = target: T1, NAD-dependent protein deacetylase sirtuin-1 (Homo sapiens); assay: Activation of SIRT1 (unknown origin) assessed as Fluor de Lys deacetylation at 10 to 20 uM incubated for 5 mins followed by substrate addition measured after 45 mins in presence of NAD/NADH by fluorescence assay

SMILES	inhibition [1]	Activity [2]
C/C(=C\CCC(C)(C)O)[C@H]1CC[C@]2(C)[C@@H]1[C@H](O)C[C@@H]1[C@@]3(C)CC[C@H](O)C(C)(C)[C@@H]3[C@@H](O)C[C@]12C	inactive	
C/C(=C\CCC(C)(C)O)[C@H]1CC[C@]2(C)[C@@H]1[C@H](O)C[C@@H]1[C@@]3(C)CC[C@H](O[C@@H]4O[C@H](CO)[C@@H](O)[C@H](O)[C@H]4O)C(C)(C)[C@@H]3[C@@H](O)C[C@]12C	inactive	
C/C(=C/CCC(C)(C)O)[C@H]1CC[C@]2(C)[C@@H]1[C@H](O)C[C@@H]1[C@@]3(C)CC[C@H](O)C(C)(C)[C@@H]3[C@@H](O)C[C@]12C	inactive	
CC(C)=CCC[C@@](C)(O)[C@H]1CC[C@]2(C)[C@@H]1[C@H](O)C[C@@H]1[C@@]3(C)CC[C@H](O[C@@H]4O[C@H](CO)[C@@H](O)[C@H](O)[C@H]4O)C(C)(C)[C@@H]3CC[C@]12C	inactive	
C/C(=C/CC[C@@](C)(O)[C@H]1CC[C@]2(C)[C@@H]1[C@H](O)C[C@@H]1[C@@]3(C)CC[C@H](O)C(C)(C)[C@@H]3[C@@H](O)C[C@]12C)CO	inactive	
CC(C)=CC/C=C(\C)[C@H]1CC[C@]2(C)[C@@H]1[C@H](O)C[C@@H]1[C@@]3(C)CC[C@H](O[C@@H]4O[C@H](CO)[C@@H](O)[C@H](O)[C@H]4O[C@@H]4O[C@H](CO)[C@@H](O)[C@H](O)[C@H]4O)C(C)(C)[C@@H]3CC[C@]12C	inactive	Active
CC(C)=CCC[C@](C)(O[C@@H]1O[C@H](CO)[C@@H](O)[C@H](O)[C@H]1O)[C@H]1CC[C@]2(C)[C@@H]1[C@H](O)C[C@@H]1[C@@]3(C)CC[C@H](O)C(C)(C)[C@@H]3[C@@H](O)C[C@]12C	inactive	Active
CC(C)=CCC[C@@](C)(O)[C@H]1CC[C@]2(C)[C@@H]1[C@H](O)C[C@@H]1[C@@]3(C)CC[C@H](O)C(C)(C)[C@@H]3[C@@H](O[C@@H]3O[C@H](CO)[C@@H](O)[C@H](O)[C@H]3O[C@@H]3O[C@@H](C)[C@H](O)[C@@H](O)[C@H]3O)C[C@]12C	inactive	
CC(C)=CC/C=C(\C)[C@H]1CC[C@]2(C)[C@@H]1[C@H](O)C[C@@H]1[C@@]3(C)CC[C@H](O)C(C)(C)[C@@H]3[C@@H](O[C@@H]3O[C@H](CO)[C@@H](O)[C@H](O)[C@H]3O)C[C@]12C	inactive	Active
C=C(CCC=C(C)C)[C@H]1CC[C@]2(C)[C@@H]1[C@H](O)C[C@@H]1[C@@]3(C)CC[C@H](O)C(C)(C)[C@@H]3[C@@H](O[C@@H]3O[C@H](CO)[C@@H](O)[C@H](O)[C@H]3O)C[C@]12C	inactive	Active
CC(C)(O)CCC[C@](C)(O)[C@H]1CC[C@]2(C)[C@@H]1[C@H](O)C[C@@H]1[C@@]3(C)CC[C@H](O)C(C)(C)[C@@H]3[C@@H](O)C[C@]12C	inactive	inactive
NC(=O)c1cccnc1	inactive	
CC(C)(O)CCC[C@@](C)(O)[C@H]1CC[C@]2(C)[C@@H]1[C@H](O)C[C@@H]1[C@@]3(C)CC[C@H](O)C(C)(C)[C@@H]3[C@@H](O)C[C@]12C	inactive	inactive
CCOC(C)(C)CC/C=C(\C)[C@H]1CC[C@]2(C)[C@@H]1[C@H](O)C[C@@H]1[C@@]3(C)CC[C@H](O)C(C)(C)[C@@H]3[C@@H](O)C[C@]12C	inactive	
C=C(CCC=C(C)C)[C@H]1CC[C@]2(C)[C@@H]1[C@H](O)C[C@@H]1[C@@]3(C)CC[C@H](O)C(C)(C)[C@@H]3[C@@H](O[C@@H]3O[C@H](CO)[C@@H](O)[C@H](O)[C@H]3O[C@@H]3O[C@@H](C)[C@H](O)[C@@H](O)[C@H]3O)C[C@]12C	inactive	
CC(C)=CCC[C@@](C)(O)[C@H]1CC[C@]2(C)[C@@H]1[C@H](O)C[C@@H]1[C@@]3(C)CC[C@H](O[C@@H]4O[C@H](CO)[C@@H](O)[C@H](O)[C@H]4O)C(C)(C)[C@@H]3[C@@H](O)C[C@]12C	inactive	
CC(C)=CCC[C@](C)(O)[C@H]1CC[C@]2(C)[C@@H]1[C@H](O)C[C@@H]1[C@@]3(C)CC[C@H](O)C(C)(C)[C@@H]3[C@@H](O[C@@H]3O[C@H](CO)[C@@H](O)[C@H](O)[C@H]3O[C@@H]3O[C@@H](C)[C@H](O)[C@@H](O)[C@H]3O)C[C@]12C	inactive	
CC(C)=CCC[C@](C)(O)[C@H]1CC[C@]2(C)[C@@H]1[C@H](O)C[C@@H]1[C@@]3(C)CC[C@H](O)C(C)(C)[C@@H]3CC[C@]12C		Active
CC(C)=CCC[C@](C)(O)[C@H]1CC[C@]2(C)[C@@H]1[C@H](O)C[C@@H]1[C@@]3(C)CC[C@H](O[C@@H]4O[C@H](CO)[C@@H](O)[C@H](O)[C@H]4O)C(C)(C)[C@@H]3[C@@H](O)C[C@]12C	inactive	Active
CC(C)=CCC[C@@](C)(O)[C@H]1CC[C@]2(C)[C@@H]1[C@H](O)C[C@@H]1[C@@]3(C)CC[C@H](O[C@@H]4O[C@H](CO)[C@@H](O)[C@H](O)[C@H]4O[C@@H]4O[C@H](CO)[C@@H](O)[C@H](O)[C@H]4O)C(C)(C)[C@@H]3CC[C@]12C	inactive	Active
CC(C)=CCC[C@](C)(O)[C@H]1CC[C@]2(C)[C@@H]1[C@H](O)C[C@@H]1[C@@]3(C)CC[C@H](O[C@@H]4O[C@H](CO)[C@@H](O)[C@H](O)[C@H]4O)C(C)(C)[C@@H]3CC[C@]12C	inactive	Active
CC(C)=CCC[C@](C)(O)[C@H]1CC[C@]2(C)[C@@H]1[C@H](O)C[C@@H]1[C@@]3(C)CC[C@H](O[C@@H]4O[C@H](CO)[C@@H](O)[C@H](O)[C@H]4O[C@@H]4O[C@H](CO)[C@@H](O)[C@H](O)[C@H]4O)C(C)(C)[C@@H]3CC[C@]12C	inactive	Active
Oc1ccc(/C=C/c2cc(O)cc(O)c2)cc1	inactive	
